According to US20250353833A1, “DPP9 BINDING COMPOUNDS” (UNIVERSITEIT ANTWERPEN, priority 2022, published 2025):
Where two headings read alike, the source gives them in different places.

Experiments:
Format in all cases: biochemical
PREP = PREP (Homo sapiens (Human), UniProt P48147); assay: PREP enzyme inhibition, IC50 measurement (N-succinyl-Gly-Pro-AMC release); settings: mean ± SD (n = 3)
Experimental: (§1) IC50 measurements. […] The Magellan software was used to process the data, which was then fitted using a non-linear fit model in GraFit 7. […] As a blank, the assay buffer was used instead of the enzyme. Screening measurements were carried out in duplo and IC50 values were determined in triplo with at least eight different inhibitor concentrations as described by Van Goethem et al.

DPP2 = DPP2 (Homo sapiens (Human), UniProt Q9UHL4); assay: DPP2 enzyme inhibition, IC50 measurement (Lys-Ala-pNA release); settings: mean ± SD (n = 3)
Experimental: as §1

DPP8 = DPP8 (Homo sapiens (Human), UniProt Q6V1X1); assay: DPP8 enzyme inhibition, IC50 measurement (Ala-Pro-pNA release)
DPP8, sequence (Q6V1X1 whole entry): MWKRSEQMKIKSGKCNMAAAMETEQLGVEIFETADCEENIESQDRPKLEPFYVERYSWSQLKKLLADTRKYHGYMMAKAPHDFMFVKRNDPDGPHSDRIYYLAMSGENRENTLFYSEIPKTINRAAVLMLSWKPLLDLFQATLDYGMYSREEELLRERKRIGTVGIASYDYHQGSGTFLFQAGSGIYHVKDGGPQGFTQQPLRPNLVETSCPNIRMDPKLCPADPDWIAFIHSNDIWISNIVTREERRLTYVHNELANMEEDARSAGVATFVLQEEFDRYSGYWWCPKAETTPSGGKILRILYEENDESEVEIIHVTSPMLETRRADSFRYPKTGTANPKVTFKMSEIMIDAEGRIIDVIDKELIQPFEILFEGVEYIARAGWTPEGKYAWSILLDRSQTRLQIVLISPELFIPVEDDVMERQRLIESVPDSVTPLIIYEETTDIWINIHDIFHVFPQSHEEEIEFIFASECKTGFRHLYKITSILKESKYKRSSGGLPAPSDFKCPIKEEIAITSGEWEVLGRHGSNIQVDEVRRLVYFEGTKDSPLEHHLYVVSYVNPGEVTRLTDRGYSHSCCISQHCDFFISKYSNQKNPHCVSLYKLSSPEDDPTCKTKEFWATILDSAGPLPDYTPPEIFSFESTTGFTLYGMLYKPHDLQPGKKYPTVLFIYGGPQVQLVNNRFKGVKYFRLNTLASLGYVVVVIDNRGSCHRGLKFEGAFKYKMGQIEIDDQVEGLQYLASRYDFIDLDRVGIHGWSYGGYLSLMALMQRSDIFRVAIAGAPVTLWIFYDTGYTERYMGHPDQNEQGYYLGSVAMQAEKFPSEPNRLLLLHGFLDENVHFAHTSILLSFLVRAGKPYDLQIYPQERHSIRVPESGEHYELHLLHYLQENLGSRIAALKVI
Experimental: as §1

DPP4 = DPP4 (Homo sapiens (Human), UniProt P27487); assay: DPP4 enzyme inhibition, IC50 measurement (Ala-Pro-pNA release); settings: for IC50: mean ± SD (n = 3)
DPP4, sequence (P27487 whole entry): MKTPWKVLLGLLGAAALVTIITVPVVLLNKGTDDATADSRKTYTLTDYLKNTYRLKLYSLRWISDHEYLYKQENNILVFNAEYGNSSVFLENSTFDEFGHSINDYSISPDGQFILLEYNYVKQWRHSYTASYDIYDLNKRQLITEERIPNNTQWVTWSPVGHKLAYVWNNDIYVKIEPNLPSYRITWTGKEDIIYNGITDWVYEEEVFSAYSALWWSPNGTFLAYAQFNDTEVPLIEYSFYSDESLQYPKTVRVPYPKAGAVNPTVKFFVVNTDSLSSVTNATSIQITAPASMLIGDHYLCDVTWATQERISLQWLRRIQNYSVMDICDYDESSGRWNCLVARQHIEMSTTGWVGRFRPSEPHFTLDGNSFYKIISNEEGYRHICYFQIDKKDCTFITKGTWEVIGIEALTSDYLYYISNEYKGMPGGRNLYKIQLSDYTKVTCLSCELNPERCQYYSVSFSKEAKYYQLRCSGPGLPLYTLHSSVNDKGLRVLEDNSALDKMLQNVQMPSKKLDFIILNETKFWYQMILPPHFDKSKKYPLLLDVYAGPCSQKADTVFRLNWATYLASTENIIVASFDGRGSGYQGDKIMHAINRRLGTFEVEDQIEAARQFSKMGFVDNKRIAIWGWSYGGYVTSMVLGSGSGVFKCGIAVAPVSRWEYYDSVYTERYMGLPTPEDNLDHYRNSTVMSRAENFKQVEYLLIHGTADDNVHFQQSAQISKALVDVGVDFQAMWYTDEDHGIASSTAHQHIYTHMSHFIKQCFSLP
Experimental: (§2) DPP4 was purified from human seminal plasma as described previously.^[3]
as §1

FAP = FAP (Homo sapiens (Human), UniProt Q12884); assay: FAP enzyme inhibition, IC50 measurement (Z-Gly-Pro-AMC release); settings: for IC50: mean ± SD (n = 3)
FAP, sequence (Q12884 27-760): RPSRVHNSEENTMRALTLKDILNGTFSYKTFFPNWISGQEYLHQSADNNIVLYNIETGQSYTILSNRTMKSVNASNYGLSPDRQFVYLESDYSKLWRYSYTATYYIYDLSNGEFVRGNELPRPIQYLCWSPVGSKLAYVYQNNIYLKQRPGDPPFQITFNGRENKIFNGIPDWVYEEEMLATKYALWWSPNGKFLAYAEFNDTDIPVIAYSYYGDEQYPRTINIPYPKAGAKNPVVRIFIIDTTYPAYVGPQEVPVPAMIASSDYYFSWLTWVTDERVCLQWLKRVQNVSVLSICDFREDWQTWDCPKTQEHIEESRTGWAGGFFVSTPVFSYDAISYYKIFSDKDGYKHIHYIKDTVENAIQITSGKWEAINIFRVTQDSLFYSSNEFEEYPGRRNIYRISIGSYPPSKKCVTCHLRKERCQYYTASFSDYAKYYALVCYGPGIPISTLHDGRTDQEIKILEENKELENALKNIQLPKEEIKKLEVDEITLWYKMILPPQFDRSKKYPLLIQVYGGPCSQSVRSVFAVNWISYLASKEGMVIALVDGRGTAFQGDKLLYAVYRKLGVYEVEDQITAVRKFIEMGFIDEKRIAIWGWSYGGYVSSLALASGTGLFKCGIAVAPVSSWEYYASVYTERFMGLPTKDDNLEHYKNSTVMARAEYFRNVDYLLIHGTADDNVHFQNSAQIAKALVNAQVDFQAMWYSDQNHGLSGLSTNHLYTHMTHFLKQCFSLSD

DPP9 = DPP9 (Homo sapiens (Human), UniProt Q86TI2); assay: DPP9 enzyme inhibition, IC50 measurement (Ala-Pro-pNA release); settings: for SI DPP9/4: selectivity index DPP9/4; for SI DPP9/8 / SI DPP9/DPP8: selectivity index; for SI DPP9/8: DPP8 IC50 over DPP9 IC50
DPP9, sequence (Q86TI2 whole entry): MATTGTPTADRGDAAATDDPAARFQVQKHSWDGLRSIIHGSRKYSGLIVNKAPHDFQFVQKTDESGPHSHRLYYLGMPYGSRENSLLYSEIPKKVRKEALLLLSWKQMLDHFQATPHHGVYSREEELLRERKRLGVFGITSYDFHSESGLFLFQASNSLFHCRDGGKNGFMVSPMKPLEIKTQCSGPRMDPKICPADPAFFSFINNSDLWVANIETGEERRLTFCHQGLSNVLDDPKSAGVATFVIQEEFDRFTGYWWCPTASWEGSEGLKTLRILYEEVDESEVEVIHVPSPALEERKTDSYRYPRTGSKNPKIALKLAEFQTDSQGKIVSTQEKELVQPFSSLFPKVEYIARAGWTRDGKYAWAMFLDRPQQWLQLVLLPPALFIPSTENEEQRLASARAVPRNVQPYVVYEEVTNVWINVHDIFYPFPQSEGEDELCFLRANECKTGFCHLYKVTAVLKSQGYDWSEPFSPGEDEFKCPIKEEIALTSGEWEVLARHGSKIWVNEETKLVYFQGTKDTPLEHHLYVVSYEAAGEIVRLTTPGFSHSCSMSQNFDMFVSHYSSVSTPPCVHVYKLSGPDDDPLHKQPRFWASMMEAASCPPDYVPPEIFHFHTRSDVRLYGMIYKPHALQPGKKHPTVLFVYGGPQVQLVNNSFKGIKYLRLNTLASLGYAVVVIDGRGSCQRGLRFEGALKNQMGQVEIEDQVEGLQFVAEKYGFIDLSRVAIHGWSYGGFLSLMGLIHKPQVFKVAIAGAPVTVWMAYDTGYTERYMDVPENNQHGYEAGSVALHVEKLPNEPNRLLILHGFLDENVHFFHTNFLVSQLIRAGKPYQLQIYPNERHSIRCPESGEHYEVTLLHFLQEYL
Experimental: as §2, §1

[1] = Table 1, mean ± SD (n = 3), read-out: IC50 DPP8
[2] = Table 1, mean ± SD (n = 3), read-out: IC50 DPP9
[3] = Table 3, mean ± SD (n = 3), read-out: DPP8 IC50 ± SD
[4] = Table 3, mean ± SD (n = 3), read-out: DPP9 IC50 ± SD
[5] = Table 4, standard method, read-out: IC50 DPP8
[6] = Table 4, standard method, read-out: IC50 DPP9

PREP, sequence (P48147 whole entry): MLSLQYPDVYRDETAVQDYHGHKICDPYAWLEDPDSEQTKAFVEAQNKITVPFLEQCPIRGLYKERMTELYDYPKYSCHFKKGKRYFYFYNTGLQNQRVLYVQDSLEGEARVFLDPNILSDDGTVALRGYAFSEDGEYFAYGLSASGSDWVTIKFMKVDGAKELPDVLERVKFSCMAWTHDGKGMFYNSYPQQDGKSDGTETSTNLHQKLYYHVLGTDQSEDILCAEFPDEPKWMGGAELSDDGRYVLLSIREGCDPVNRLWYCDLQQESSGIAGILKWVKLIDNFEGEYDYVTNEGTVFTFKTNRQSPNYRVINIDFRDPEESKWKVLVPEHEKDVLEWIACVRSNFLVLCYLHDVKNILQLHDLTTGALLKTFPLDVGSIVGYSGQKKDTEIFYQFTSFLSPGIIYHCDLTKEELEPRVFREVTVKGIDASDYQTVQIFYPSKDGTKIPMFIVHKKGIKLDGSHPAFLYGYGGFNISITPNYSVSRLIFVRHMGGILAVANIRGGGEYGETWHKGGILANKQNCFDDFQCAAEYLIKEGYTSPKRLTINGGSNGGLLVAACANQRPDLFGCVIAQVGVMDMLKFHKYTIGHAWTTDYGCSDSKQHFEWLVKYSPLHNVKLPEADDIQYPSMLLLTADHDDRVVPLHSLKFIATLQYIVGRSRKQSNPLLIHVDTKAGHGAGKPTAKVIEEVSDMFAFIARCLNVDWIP

## CCCCOC12CC3CC(CC(NCC(=O)N4CCC[C@H]4C#N)(C3)C1)C2 [Compound 5c, (2S)-1-((-3-butoxyadamantan-1-yl)glycyl)pyrrolidine-2-carbonitrile]
PREP; Table 1
  IC50: > 10000 nM
DPP2; Table 1
  IC50: > 5000 nM
DPP8; [1]
  IC50: 1250 ± 100 nM
DPP4; Table 1
  IC50: 12 ± 2 nM
FAP; Table 1
  IC50: > 10000 nM
DPP9; [2]
  IC50: 150 ± 10 nM
DPP9; Table 1
  SI DPP9/4: 0.07
  SI DPP9/8: 8.5

## N#C[C@@H]1[C@@H]2C[C@@H]2CN1C(=O)CNC12CC3CC(C1)CC(OCc1ccccc1)(C3)C2 [Compound 5m, (1R,2S,5S)-3-((-3-(benzyloxy)adamantan-1-yl)glycyl)-3-azabicyclo[3.1.0]hexane-2-carbonitrile]
PREP; Table 1
  IC50: > 10000 nM
DPP2; Table 1
  IC50: > 5000 nM
DPP8; [1]
  IC50: 5900 ± 400 nM
DPP4; Table 1
  IC50: 100 ± 40 nM
FAP; Table 1
  IC50: > 10000 nM
DPP9; [2]
  IC50: 670 ± 200 nM
DPP9; Table 1
  SI DPP9/4: 0.15
  SI DPP9/8: 8.7

## O=C(CNC12CC3CC(CC(O)(C3)C1)C2)N1Cc2ccccc2C1 [Compound 5p, 2-((-3-hydroxyadamantan-1-yl)amino)-1-(isoindolin-2-yl)ethan-1-one]
PREP; Table 2
  IC50: > 10000 nM
DPP2; Table 2
  IC50: > 5000 nM
DPP8; Table 2, mean ± SD (n = 3), read-out: IC50 DPP8
  IC50: 17700 ± 800 nM
DPP4; 5p compared with vildagliptin/4
  DPP4 potency decrease: at least 100 fold
DPP4; Table 2
  IC50: > 10000 nM
FAP; Table 2
  IC50: > 10000 nM
DPP9; Table 2, mean ± SD (n = 3), read-out: IC50 DPP9
  IC50: 4100 ± 700 nM
DPP9; Table 2
  SI DPP9/4: >2.4
  SI DPP9/8: 4.3

## N#C[C@@H]1CCCN1C(=O)CNC12CC3CC(C1)CC(OCc1ccccc1)(C3)C2 [Compound 5a, (S)-1-((-3-(benzyloxy)adamantan-1-yl)glycyl)pyrrolidine-2-carbonitrile]
PREP; Table 1
  IC50: 4300 ± 300 nM
DPP2; Table 1
  IC50: > 5000 nM
DPP8; [1]
  IC50: 1320 ± 200 nM
FAP; Table 1
  IC50: 4000 ± 4000 nM
FAP; at the tested concentrations
  inhibition of FAP: micromolar inhibitor
DPP9; Table 1
  SI DPP9/8: 9.9

## CCCCOC12CC3CC(CC(NCC(=O)N4C[C@H]5C[C@H]5[C@H]4C#N)(C3)C1)C2 [Compound 5o, (1R,2S,5S)-3-((-3-butoxyadamantan-1-yl)glycyl)-3-azabicyclo[3.1.0]hexane-2-carbonitrile]
PREP; Table 1
  IC50: > 10000 nM
DPP2; Table 1
  IC50: > 5000 nM
DPP8; [1]
  IC50: > 10000 nM
FAP; Table 1
  IC50: > 10000 nM
DPP9; [2]
  IC50: 990 ± 400 nM

## CCCCOC12CC3CC(CC(NCC(=O)N4C[C@@H](N=[N+]=[N-])C[C@H]4C#N)(C3)C1)C2 [Compound 5g, (2S,4S)-4-azido-1-((3-butoxyadamantan-1-yl)glycyl)pyrrolidine-2-carbonitrile]
PREP; Table 1
  IC50: > 10000 nM
DPP2; Table 1
  IC50: > 5000 nM
DPP8; [1]
  IC50: 270 ± 60 nM
FAP; Table 1
  IC50: > 10000 nM
DPP9; [2]
  IC50: 35 ± 2 nM
DPP9; Table 1
  SI DPP9/4: 3.8
  SI DPP9/8: 7.8

## O=C(CCCCC1SCC2NC(=O)NC21)NCCOCCOCCOCCNC(=O)NC12CC3CC(CC(NCC(=O)N4Cc5ccc(F)cc5C4)(C3)C1)C2 (stereo not shown) [Compound 75, N-(1-((3-((2-(5-fluoroisoindolin-2-yl)-2-oxoethyl)amino)adamantan-1-yl)amino)-1-oxo-5,8,11-trioxa-2-azatridecan-13-yl)-5-(2-oxohexahydro-1H-thieno[3,4-d]imidazol-4-yl)pentanamide]
DPP8; [3]
  IC50: 495 ± 72 nM
DPP9; [4]
  IC50: 43 nM
DPP9; Table 3
  SI DPP9/8: 12

## N#Cc1ccc(CNC23CC4CC(CC(NCC(=O)N5Cc6ccccc6C5)(C4)C2)C3)cc1 [Compound 26, 4-(((-3-((2-(isoindolin-2-yl)-2-oxoethyl)amino)adamantan-1-yl)amino)methyl)benzonitrile]
DPP8; [3]
  IC50: 672 ± 412 nM
DPP9; [4]
  IC50: 50.6 ± 28.7 nM
DPP9; Table 3
  SI DPP9/8: 13.3

## COC(=O)[C@H](C)NC(=O)OC12CC3CC(CC(NCC(=O)N4Cc5ccc(F)cc5C4)(C3)C1)C2 [Compound 62, Methyl (((3-((2-(5-fluoroisoindolin-2-yl)-2-oxoethyl)amino)adamantan-1-yl)oxy)carbonyl)-L-alaninate]
DPP8; [3]
  IC50: 1290 ± 186 nM
DPP9; [4]
  IC50: 93.8 ± 17.3 nM
DPP9; Table 3
  SI DPP9/8: 13.8

## O=C(O)[C@@H]1CCCN1C(=O)OC12CC3CC(CC(NCC(=O)N4Cc5ccc(F)cc5C4)(C3)C1)C2
DPP8; [3]
  IC50: 920 ± 121 nM
DPP9; [4]
  IC50: 8.03 nM
DPP9; Table 3
  SI DPP9/8: 114.6

## CC12CC3CC(C)(C1)CC(NCC(=O)N1Cc4ccc(F)cc4C1)(C3)C2 [Compound 63, 2-((3,5-Dimethyladamantan-1-yl)amino)-1-(5-fluoroisoindolin-2-yl)ethan-1-one]
DPP8; [3]
  IC50: 4780 ± 670 nM
DPP9; [4]
  IC50: 443 ± 168 nM
DPP9; Table 3
  SI DPP9/8: 10.8

## CC(C)(C)CC(=O)NC12CC3CC(CC(NCC(=O)N4Cc5cc(F)c(F)cc5C4)(C3)C1)C2 [Compound 86, N-((1s,3r,5R,7S)-3-((2-(5,6-difluoroisoindolin-2-yl)-2-oxoethyl)amino)adamantan-1-yl)-3,3-dimethylbutanamide]
DPP8; [5]
  IC50: 1300 ± 127 nM
DPP9; Table 4
  SI DPP9/DPP8: 22
DPP9; [6]
  IC50: 58 nM

## Cc1ncsc1-c1ccc(CNC(=O)[C@@H]2C[C@@H](O)CN2C(=O)[C@@H](NC(=O)CCOCCOCCOCCC(=O)NC23CC4CC(CC(NCC(=O)N5Cc6ccc(F)cc6C5)(C4)C2)C3)C(C)(C)C)cc1 [Compound 124, (2S,4R)-1-((2S)-2-(tert-butyl)-16-((3-((2-(5-fluoroisoindolin-2-yl)-2-oxoethyl)amino)adamantan-1-yl)amino)-4,16-dioxo-7,10,13-trioxa-3-azahexadecanoyl)-4-hydroxy-N-(4-(4-methylthiazol-5-yl)benzyl)pyrrolidine-2-carboxamide]
DPP8; [5]
  IC50: 94 ± 25 nM
DPP9; Table 4
  SI DPP9/DPP8: 5
DPP9; [6]
  IC50: 20 nM

## 3-((2-(isoindolin-2-yl)-2-oxoethyl)amino)adamantan-1-yl tert-pentylcarbamate hydrochloride [Compound 31]
DPP8; [3]
  IC50: 4710 ± 1590 nM
DPP9; [4]
  IC50: 378 ± 173 nM
DPP9; Table 3
  SI DPP9/8: 12.5

## Cl.O=C(NC12CC3CC(CC(NCC(=O)N4Cc5ccc(F)cc5C4)(C3)C1)C2)c1cccnc1 [Compound 98, N-((1s,3r,5R,7S)-3-((2-(5-fluoroisoindolin-2-yl)-2-oxoethyl)amino)adamantan-1-yl)nicotinamide hydrochloride]
DPP8; [5]
  IC50: 270 ± 33 nM
DPP9; Table 4
  SI DPP9/DPP8: 3
DPP9; [6]
  IC50: 88 ± 23 nM

## O=C(NCCCCO)OC12CC3CC(CC(NCC(=O)N4Cc5ccccc5C4)(C3)C1)C2 [Compound 29, 3-((2-(isoindolin-2-yl)-2-oxoethyl)amino)adamantan-1-yl(4-hydroxybutyl)carbamate]
DPP8; [3]
  IC50: 2600 ± 577 nM
DPP9; [4]
  IC50: 243 ± 107 nM
DPP9; Table 3
  SI DPP9/8: 10.7

## O=C(N[C@@H](Cc1c[nH]c2ccccc12)C(=O)O)OC12CC3CC(CC(NCC(=O)N4Cc5ccc(F)cc5C4)(C3)C1)C2
DPP8; [3]
  IC50: 164 nM
DPP9; [4]
  IC50: 6.55 nM
DPP9; Table 3
  SI DPP9/8: 25.0

## O=C(NCc1ccc(F)cc1F)OC12CC3CC(CC(NCC(=O)N4Cc5ccccc5C4)(C3)C1)C2 [Compound 39, 3-((2-(isoindolin-2-yl)-2-oxoethyl)amino)adamantan-1-yl (2,4-difluorobenzyl)carbamate]
DPP8; [3]
  IC50: 823 ± 185 nM
DPP9; [4]
  IC50: 48.3 nM
DPP9; Table 3
  SI DPP9/8: 17.0

## Lithium (((3-((2-(5-fluoroisoindolin-2-yl)-2-oxoethyl)amino)adamantan-1-yl)oxy)carbonyl)glycine [Compound 54]
DPP8; [3]
  IC50: 243 ± 46.4 nM
DPP9; [4]
  IC50: 8.88 nM
DPP9; Table 3
  SI DPP9/8: 27.4

## Cl.O=C(NCc1ccccc1)NC12CC3CC(CC(NCC(=O)N4Cc5ccccc5C4)(C3)C1)C2 [Compound 42, 1-benzyl-3-(3-((2-(isoindolin-2-yl)-2-oxoethyl)amino)adamantan-1-yl)urea hydrochloride]
DPP8; [3]
  IC50: 505 ± 25.7 nM
DPP9; [4]
  IC50: 37.8 ± 13.3 nM
DPP9; Table 3
  SI DPP9/8: 13.4

## O=C(NC12CC3CC(CC(C3)C1)C2)NC12CC3CC(CC(NCC(=O)N4Cc5ccccc5C4)(C3)C1)C2 [Compound 41, 1-(adamantan-1-yl)-3-(3-((2-(isoindolin-2-yl)-2-oxoethyl)amino)adamantan-1-yl)urea]
DPP8; [3]
  IC50: 592 ± 87.7 nM
DPP9; [4]
  IC50: 32.8 nM
DPP9; Table 3
  SI DPP9/8: 18.0

## CC(C)(C)OC(=O)NC12CC3CC(CC(NCC(=O)N4Cc5ccc(F)cc5C4)(C3)C1)C2 [Compound 46, tert-butyl (3-((2-(5-fluoroisoindolin-2-yl)-2-oxoethyl)amino)adamantan-1-yl)carbamate]
DPP8; [3]
  IC50: 824 ± 148 nM
DPP9; [4]
  IC50: 14.3 nM
DPP9; Table 3
  SI DPP9/8: 57.6

## N-(-3-((2-(5-fluoroisoindolin-2-yl)-2-oxoethyl)amino)adamantan-1-yl)adamantane-1-carboxamide [Compound 45]
DPP8; [3]
  IC50: 1180 ± 138 nM
DPP9; [4]
  IC50: 38 ± 10 nM
DPP9; Table 3
  SI DPP9/8: 31

## COC(=O)[C@H](CCSC)NC(=O)OC12CC3CC(CC(NCC(=O)N4Cc5ccc(F)cc5C4)(C3)C1)C2 [Compound 61, Methyl (((-3-((2-(5-fluoroisoindolin-2-yl)-2-oxoethyl)amino)adamantan-1-yl)oxy)carbonyl)-L-methioninate]
DPP8; [3]
  IC50: 705 ± 76 nM
DPP9; [4]
  IC50: 46.1 nM
DPP9; Table 3
  SI DPP9/8: 15.3
